Measured values: patent publication US20200383985A1, “Inhibitors of Protease Activated Receptor-2” (Endosome Therapeutics, Inc., priority 2017, published 2020)

What was measured:
mice = test: Somatic mechanical nociception, von Frey filaments after intraplantar injection; assay type: in vivo, mouse; settings: for NE- and CS-induced allodynia / trypsin-induced mechanical allodynia: inhibitor 50 μM, 10 μl intraplantar; for NE- and CS-induced allodynia: 30 min before NE (1.2 μM) or CS (2.5 μM); for trypsin-induced mechanical allodynia: 30 min before trypsin (10 nM), at 1 and 2 h; for mechanical allodynia after intraplantar protease: WT mice, 10 μl trypsin (80 nM), NE (3.9 μM) or CS (5 μM), within 30 min, maintained for 180 min
Procedure: After 30 min, trypsin (10 nM), NE (1.2 μM), or CS (2.5 μM) (10 μl) was injected into the same paw.
Mice were acclimatized to the experimental apparatus, room and investigator for 1-2 h on 2 successive days before studies. Investigators were blinded to the test agents. Mice were sedated (5% isoflurane) for intraplantar injections. Dy4a, Dy4 inact, PS2, PS2 inact (all 50 μM) or vehicle (0.2% DMSO in 0.9% NaCl) (10 μl) was injected into the left hindpaw. After 30 min, trypsin (10 or 80 nM), CS (2.5 or 5 μM) or NE (1.2 or 3.9 μM) (all 10 μl) was injected into the same hindpaw. Mechanical nociceptive responses were evaluated by examining paw withdrawal to stimulation of the plantar surface of the hind-paw with calibrated von Frey filaments. von Frey scores were measured in triplicate to establish a baseline for each animal on the day before experiments, and were then measured for up to 4 h after protease administration. To assess edema, paw thickness was measured at the site of injection between the plantar and the dorsal surfaces of the paw using digital calipers. For evaluation of neutrophil infiltration, paws were collected at 4 h after intraplantar injection of trypsin (10 μl, 80 nM) or vehicle, fixed in 10% neutral buffered formalin for 48-72 h, bisected, and fixed in formalin for an additional 12 h. Tissue was decalcified in 10% 0.5 M EDTA for 6 days, washed in water, transferred to 70% ethanol for 24 h, and embedded in paraffin. Sections (5 μm) were incubated with neutrophil antibody Ly6G/6C clone NIMP-R14 (Abcam #ab2557, Lot #GR135037-1, AB_303154, 1:800, room temperature, 12 h). Sections were processed for chromogenic immunohistochemistry on a Ventana Medical Systems Discovery XT platform with online deparaffinization using Ventana's reagents. Ly6G/Ly6c was enzymatically treated with protease-3 (Ventana Medical Systems) for 8 min. Ly6G/Ly6c was detected with goat anti-rat horseradish peroxidase conjugated multimer incubated for 16 min.

mPAR2-GFP = molecular target: T1, mPAR2-GFP (Mus musculus, UniProt P55086); test: PAR2 trafficking (endocytosis) in DRG neurons; assay type: cell-based; settings: for mPAR2-GFP endocytosis: protease 100 nM, 30 min
T1 construct: expressed in transfected cells; host or cells: mouse (C57BL/6) DRG neurons, nucleofection
T1 sequence (P55086 26-399): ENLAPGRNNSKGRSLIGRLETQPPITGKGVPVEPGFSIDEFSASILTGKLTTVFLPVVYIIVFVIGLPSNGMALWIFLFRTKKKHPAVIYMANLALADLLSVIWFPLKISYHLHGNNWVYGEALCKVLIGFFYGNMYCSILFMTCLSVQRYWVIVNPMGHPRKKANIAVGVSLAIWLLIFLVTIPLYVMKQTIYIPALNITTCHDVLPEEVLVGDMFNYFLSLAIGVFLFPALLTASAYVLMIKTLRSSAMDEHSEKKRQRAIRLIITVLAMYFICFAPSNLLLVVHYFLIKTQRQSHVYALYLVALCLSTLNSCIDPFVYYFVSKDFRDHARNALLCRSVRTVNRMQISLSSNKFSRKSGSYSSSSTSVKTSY
Procedure: To assess endocytosis of PAR2 in nociceptors, mouse (m) PAR2-GFP was transfected in to mouse DRG neurons. In vehicle-treated neurons, mPAR2-GFP was detected at the plasma membrane and in intracellular compartments that may correspond to stores of PAR2 in the Golgi apparatus (FIG. 4A) (Jensen D. D., et al. J Biol Chem. 2016, 291(21): 11285-11299). Trypsin, but not NE or CS (100 nM, 30 min), induced mPAR2-GFP endocytosis (FIG. 4A, B). Dy4, but not Dy4 inact, inhibited trypsin-induced endocytosis of mPAR2-GFP (FIG. 4C). To determine whether PAR2 recruits βARRs, which mediate endocytosis, Bioluminescence Resonance Energy Transfer (BRET) sensors were expressed for PAR2-RLuc8 (donor) and βARR2-YFP (acceptor) in mouse DRG neurons. Trypsin, but not NE or CS, increased PAR2-RLuc8/βARR2-YFP BRET (FIG. 4D).
DRG were collected from C57BL/6 mice and Sprague-Dawley rats (all levels). DRG were incubated with collagenase IV (2 mg/ml) and dispase II (1 mg/ml) for 30 min (mice) and 45 min (rats) at 37° C. DRG were dispersed by trituration with a fire-polished Pasteur pipette. Dissociated neurons were transfected with mPAR2-GFP (1 μg), the FRET biosensors CytoEKAR, NucEKAR, pmCKAR or CytoCKAR (all […]), or with the BRET biosensors PAR2-RLuc8 (125 ng) and βARR2-FYP (475 ng) using the Lonza 4D-Nucleofector X unit according to the manufacturer's instructions. […]
Mouse DRG neurons expressing mPAR2-GFP were incubated with trypsin (10 nM), CS (100 nM), NE (100 nM) or vehicle (30 min, 37° C.), and were fixed (4% paraformaldehyde, 20 min, 4C). NeuN was detected by indirect immunofluorescence as described (Jensen, D. D. et al., Sci Transl Med. 2017, 9(392), eaal3447). […] PAR2 internalization in NeuN-positive neurons was quantified using ImageJ software. The border of the cytoplasm in the neuronal soma was defined by NeuN fluorescence. mPAR2-GFP fluorescence within 0.5 μm of the border was defined as plasma membrane-associated receptor. The ratio of plasma membrane to cytosolic mPAR2-GFP was determined.

Molecule	NE- and CS-induced allodynia (mice)	trypsin-induced mechanical allodynia (mice)	trypsin-induced endocytosis of mPAR2-GFP (mPAR2-GFP; preincubated with Dy4 or Dy4 inact)	mechanical allodynia after intraplantar protease (mice)	mPAR2-GFP endocytosis (mPAR2-GFP)
O=C(N/N=C/c1cc(O)c(O)cc1O)c1cc2ccccc2cc1O [Dy4]	unchanged or minimally affected	inhibited	inhibited		
O=C1NC(=NS(=O)(=O)c2cccc3ccccc23)S/C1=C\c1ccc(Br)cc1 [PS2]	unchanged or minimally affected	inhibited			
trypsin				induced mechanical allodynia	induced
NE: protease (elastase) activating PAR2 by biased mechanisms				induced mechanical allodynia	not
